Blank lines part the entries; values can stand above or below the compound they belong to.
Legend:
[1] = test system: MCF7 TDX; assay: Cyquant and crystal violet cytotoxicity; format: cell-based; conditions: for IC50: tumor - breast, TDX resistant, high TS, 72 hour incubation; for normal/tumor IC50 ratio: normal IC50 = average of CCD18co and Det551
Description: (§1) Cvquant and Crystal Violet Cytotoxicity Exponentially growing cells were transferred at a density of 1.0-4.0×10^3 cells per well to a 96-well tissue culture plate in growth medium (RPMI1640+10% FBS+antibiotics). Cells were allowed to attach for 24 hours in standard culture conditions (37° C., 5% CO2, 95% humidity). Experimental compounds were then applied in duplicate half log serial dilutions. After additional 72 hour incubation, surviving cells were stained with crystal violet (adherent cells) or Cyquant (semi or non—adherent cells). Absorbence or fluorescence, respectively, was monitored. IC50 values were derived from sigmoid curves fit according to the Hill inhibitory Emax model.
(§2) The selectivity of a given antitumor agent can be assessed by comparing the IC50 for a tumor cell line to the IC50 of a normal cell strain growing under the same conditions, determined and Cyquant staining for non-adherent cells, and crystal violet staining for adherent cells. The selectivity is given here as the ratio of normal cell IC50 to tumor cell IC50. In this case, normal cell IC50 is defined as the average of the value for CCD18co and Det551 to allow for direct comparison of the established cancer drug 5-FU with BVdU.

[2] = test system: SKBR3 #52; assay: Cyquant and crystal violet cytotoxicity; format: cell-based; conditions: for IC50: SKBR3 #52, tumor - breast, high TS transfectant, 72 hour incubation; for normal/tumor IC50 ratio: normal IC50 = average of CCD18co and Det551
Description: as §1, §2

[3] = test system: Det 551; assay: Cyquant and crystal violet cytotoxicity; format: cell-based; conditions: for IC50: Det 551, normal embryonic skin, 72 hour incubation
Description: as §1, §2

[4] = test system: SW527TDX; assay: Cyquant and crystal violet cytotoxicity; format: cell-based; conditions: for normal/tumor IC50 ratio: normal IC50 = average of CCD18co and Det551; for IC50: tumor - breast, TDX resistant, high TS, 72 hour incubation
Description: as §1, §2

[5] = test system: SKBR3 V; assay: Cyquant and crystal violet cytotoxicity; format: cell-based; conditions: vector control, low TS, 72 hour incubation
Description: as §1, §2

[6] = test system: CCD18co; assay: Cyquant and crystal violet cytotoxicity; format: cell-based; conditions: for IC50: CCD18co, normal colon epithelium, 72 hour incubation
Description: as §1, §2

[7] = test system: H630-R10; assay: Cyquant and crystal violet cytotoxicity; format: cell-based; conditions: for IC50: H630-R10, tumor - colon, 5-FU resistant, high TS, 72 hour incubation; for normal/tumor IC50 ratio: normal IC50 = average of CCD18co and Det551
Description: as §1, §2

[8] = test system: MCF7; assay: Cyquant and crystal violet cytotoxicity; format: cell-based; conditions: for IC50: MCF7, tumor - breast, parental control, 72 hour incubation; for normal/tumor IC50 ratio: normal IC50 = average of CCD18co and Det551
Description: as §1, §2

[9] = test system: SW527P; assay: Cyquant and crystal violet cytotoxicity; format: cell-based; conditions: tumor - breast, parental control, 72 hour incubation
Description: as §1, §2

[10] = test system: MCF7 TDX; assay: alamarBlue cytotoxicity assay; format: cell-based; conditions: for IC50: alamarBlue
Description: (§3) alamarBlue cytotoxicity assay Tumor cells growing exponentially were transferred to 384 well flat bottom tissue culture plates. H630 R10 were plated at a density of 500 cells per well and MCF7 TDX at 250 cells/well in 25 μL of complete medium (RPMI 1640+10% fetal bovine serum+antibiotics/antimyotics). After 24 hours (day 0), 25 μL of complete medium containing the compounds (NB1011 or BVdU) over the dose range of 10^−3 to 10^−10 M were added in triplicate. Drug exposure time was 120 hours (day 5), after which growth inhibition was assayed. The redox indicator alamarBlue was added to each well at 10% (v/v). After 1-hour incubation at room temperature, fluorescence was monitored at 536 nm excitation and 595 nm emission. Concentration versus relative fluorescence units (RFU) was plotted, and sigmoid curves were fit using the Hill equation. IC50, indicated by the inflection point of the curve, is the concentration at which growth is inhibited by 50%.
(§4) H630 R10 is a colon cancer tumor cell line selected for resistance to 5-FU, and overexpresses thymidylate synthase protein approximately 20-fold. MCF7 TDX is a breast tumor cell line selected with Tomudex, and overexpresses thymidylate synthase to approximately the same extent.

[11] = test system: H630 R10; assay: alamarBlue cytotoxicity assay; format: cell-based; conditions: for IC50: alamarBlue, drug exposure 120 hours, 5-FU resistant colon tumor cell line
Description: as §3, §4

[12] = test system: PC HT1080; assay: Sensitivity of thymidine kinase transfected HT1080 cell lines to BVdU; format: cell-based; conditions: Homo sapiens, HT-1080; PC HT1080, TK protein level 100 units
From the text: (§5) Cell lines that overexpress human thymidine kinase (TK) are also more sensitive to BVdU, providing another criterion for identification of tumor susceptibility to BVdU.

[13] = test system: TKC HT1080 #22; assay: as above; format: cell-based; conditions: Homo sapiens, HT-1080; TKC HT1080 #22, TK protein level 400 units
From the text: as §5

[14] = test system: TKC HT1080 #5; assay: as above; format: cell-based; conditions: Homo sapiens, HT-1080; TKC HT1080 #5, TK protein level 200 units
From the text: as §5

[15] = test system: H630 R10; conditions: previously shown; cited from earlier work
[16] = test system: TS HT1080 #12; assay: Cyquant and crystal violet cytotoxicity; format: cell-based, human; conditions: for IC50: TS HT1080 #12, tumor - fibrosarcoma, high TS transfectant, 72 hour incubation; for normal/tumor IC50 ratio: normal IC50 = average of CCD18co and Det551
Description: as §1
Cell transfection. HT1080 cells were grown in RPMI1640 medium supplemented with 10% FBS, and transfected with TS expression vector. 48 hours later, transfected cells were trypsinized and replated in culture medium containing 750 μg/ml G418. After selection with G418 for two weeks, surviving cells were cloned. Clones with different TS levels were selected based on Western blot analysis, and expanded into cell lines. The stable HT1080 cells transfected with pcDNA3.1(−) only were used as control.
as §2

IC50 [12]: 303 µM | IC50 [13]: 162 µM | IC50 [14]: 275 µM
SMILES: O=c1[nH]c(=O)n([C@H]2C[C@H](O)[C@@H](CO)O2)cc1/C=C/Br [BVdU, (E)-5-(2-bromovinyl)-2′-deoxyuridine]
times the 5-FU normal/tumor ratio [1]: 18,000 times | IC50 ([1]; Homo sapiens): 0.6 ± 0.5 µM | normal/tumor IC50 ratio [1]: 5847 | IC50 ([2]; Homo sapiens, SK-BR-3): 8.3 µM | times the 5-FU normal/tumor ratio ([2]; SKBR3 #52): 2,000 times | normal/tumor IC50 ratio ([2]; SKBR3 #52): 423 | IC50 [3]: 2.19 ± 0.682 mM | anti-proliferative effect (in words) ([3]; normal cell strain representing skin, even high concentrations): not affected | times the 5-FU normal/tumor ratio [4]: 5,000 times | normal/tumor IC50 ratio [4]: 540 | IC50 [4]: 6.5 µM | IC50 ([5]; Homo sapiens, SK-BR-3, tumor - breast): > 1000 µM | IC50 ([6]; Homo sapiens, CCD-18Co): 4.82 ± 0.128 mM | anti-proliferative effect (in words) ([6]; normal cell strain representing colon, even high concentrations): not affected | times the 5-FU normal/tumor ratio ([7]; H630-R10): 42 times | IC50 [7]: 561 ± 157 µM | normal/tumor IC50 ratio ([7]; H630-R10): 6.3 | IC50 ([8]; Homo sapiens): 1250 µM | selectivity relative to 5-FU ([8]; MCF7): more than ten times as selective as 5-FU | normal/tumor IC50 ratio ([8]; MCF7): 2.8 | IC50 [9]: > 1000 µM | IC50 ([10]; Homo sapiens, MCF7, Tomudex resistant breast cancer cell line): 5 nM | IC50 ([10]; Homo sapiens, MCF7, drug exposure 120 hours, Tomudex resistant breast tumor cell line): 5 nM | fold more active than NB1011 ([10]; MCF7 TDX cells, from IC50): ~25 fold | fold less active than NB1011 ([11]; H630R10 cells, from IC50): ~6 fold | IC50 ([11]; Homo sapiens, NCI-H630): 303 µM | sensitivity of H630 R10 (in words) [15]: insensitive | IC50 ([16]; Homo sapiens, HT-1080): 5.7 ± 1.8 µM | times the 5-FU normal/tumor ratio ([16]; TS HT1080 #12): 961 times | normal/tumor IC50 ratio ([16]; TS HT1080 #12): 615

SMILES: O=c1[nH]cc(F)c(=O)[nH]1 [5-FU, reference compound]
normal/tumor IC50 ratio [1]: 0.33 | IC50 [1]: 6.7 ± 2 µM | IC50 [2]: 9.1 ± 1.6 µM | normal/tumor IC50 ratio ([2]; SKBR3 #52): 0.24 | IC50 [3]: 0.0031 ± 0.0005 mM | normal/tumor IC50 ratio [4]: 0.11 | IC50 [4]: 20.4 ± 9.9 µM | IC50 ([5]; tumor - breast): 7.4 ± 2.4 µM | IC50 [6]: 0.0014 ± 0.0004 mM | IC50 [7]: 143 ± 5.9 µM | normal/tumor IC50 ratio ([7]; H630-R10): 0.15 | IC50 [8]: 8.8 ± 5.9 µM | normal/tumor IC50 ratio ([8]; MCF7): 0.25 | IC50 [9]: 9.1 ± 1.3 µM | IC50 [16]: 3.5 ± 0.2 µM | normal/tumor IC50 ratio ([16]; TS HT1080 #12): 0.64

SMILES: C[C@H](NP(=O)(OC[C@H]1O[C@@H](n2cc(/C=C/Br)c(=O)[nH]c2=O)C[C@@H]1O)Oc1ccccc1)C(=O)O (stereo partly drawn) [NB1011, reference compound]
IC50 ([10]; drug exposure 120 hours, Tomudex resistant breast tumor cell line): 130 nM | IC50 [11]: 57 µM

From patent publication US20070155673A1, “USE OF BVDU FOR INHIBITING THE GROWTH OF HYPERPROLIFERATIVE CELLS” (Celmed Oncology (USA), Inc., priority 1999, published 2007)
